Values quoted from earlier work in patent publication US8841334B2, “Compounds as cannabinoid receptor ligands and uses thereof” (priority 2006, dated 2014).

Tests used:
animal models = animal models of acute thermal pain, persistent pain, inflammatory pain and neuropathic pain
rodent models = rodent models of neuropathic, incisional, and both chronic and acute inflammatory pain
rat = rat formalin model of persistent pain
[1] = test system: microglial activation and neurotoxicity; conditions: in vitro
[2] = test system: apolipoprotein E knockout mice
mice = conditions: model for post-menopausal osteoporosis

CN1CCCCC1Cn1cc(C(=O)c2cc([N+](=O)[O-])ccc2I)c2ccccc21 (stereo not drawn) [AM-1241]
analgesic efficacy (animal models): robust analgesic efficacy

COc1ccc2c(c1)c(CCN1CCOCC1)c(C)n2C(=O)c1cccc(Cl)c1Cl [GW405833]
efficacy in pain models (rodent models): efficacious

CCCCCCC(C)(C)c1cc(OC)c([C@@H]2C=C(CO)[C@@H]3C[C@H]2C3(C)C)c(OC)c1 [HU-308]
antinociceptive response (rat): elicits an antinociceptive response

CCCC(C)(C)c1ccc2c(c1)OC(C)(C)[C@@H]1CC=C(C)C[C@@H]21 [JWH-133]
[…]-amyloid-induced microglial activation and neurotoxicity [1]: abrogated

(−)-Δ^9-Tetrahydrocannabinol [THC]
progression of atherosclerotic lesions ([2]; low doses): slowed the progression of atherosclerotic lesions

SR144528
inhibition of the effects of THC on atherosclerotic lesions ([2]; mouse, in vivo): inhibited | block of the effects of JWH-133 on microglial activation and neurotoxicity [1]: blocked | osteoclast activity (osteoclast activity): inhibit osteoclast activity | ovariectomy-induced bone loss (mice): reverse ovariectomy-induced bone loss
